From patent US6710168B1, “Glycopeptide antibiotics, combinatorial libraries of glycopeptide antibiotics and methods of producing same” (The Trustees of the University of Princeton, priority 1999, dated 2004)
In brackets after ≈: the same amount, converted by molar mass.

Experiments:
Format in all cases: cell-based
[1] = test system: Bacillus cereus (ATCC 11778); assay: MIC susceptibility test, microdilution with MTT readout; details: for MIC: Bacillus cereus, ATCC11778, read-out: MIC BC; for MIC BC: Bacillus ceres ATCC11778
Experimental: (§1) Evaluation of vancomycin analogs is performed using in vitro susceptibility tests and a time-kill assay. [NCCL Standard, 1993] In susceptibility tests, five strains of bacteria, two of the most important: Staphylococcus aureus and Enterococcus faecalis (both susceptible and resistant strains), and Bacillus cereus are chosen and bacteria viability remaining in each well is evaluated using a colorimetric assay based on the tetrazolium salt 3-(4,5-dimethyl-2-thiazolyl)-2,5-diphenyl-2H tetrazolium bromide (MTT) and minimum inhibitory concentration (MIC) values are determined as μg/mL. [Mosmann, T. (1983); Damour, O., et al. (1992); Mikami, Y., et al. (1994)] This assay gives susceptibility information quickly, efficiently, and clearly.
(§2) All strains [Bacillus cereus (ATCC® 11778), Staphylococcus aureus (ATCC® 29213), Methicillin resistant Staphylococcus aureus (ATCC® 33591), Enterococcus faecalis (ATCC® 29212), and gentamicin, streptmycin, vancomycin resistant Enterococcus faecalis (ATCC® 51299), are purchased from REMEL (Lenexa, Kans.).
(§3) MICs are determined by the microdilution method using 96-well microplates. Samples are suspended with Cation Adjusted (20 to 25 mg of Ca^2+/mL and 10 to […] of Mg^2+) Mueller-Hinton broth (Difco Laboratories, Detroit, Mich.) and are two-fold diluted from 5 μg/mL to […] on microplates (12 step dilution). To each well, which contained 100 μL of cell suspension (10^6 CFU/mL), 100 μL of antibiotic solution is added and the plates are incubated at 37° C. for 24 h. 50 μL of MTT solution (1 mg/mL) is added to each well, then the plates are incubated under the same conditions (incubation time; 30 min for Bacillus cereus, Staphylococcus aureus, and Methicillin resistant Staphylococcus aureus; 2 hours for Enterococcus faecalis and Gentamicin, Streptmycin, Vancomycin Enterococcus faecalis). MTT is a yellow tetrazolium salt that is reduced by mitochondrial enzymes in viable cells to an insoluble blue formazan product. MIC values are evaluated by observing the lowest drug concentration to inhibit bacteria growth.

[2] = test system: Enterococcus faecalis (ATCC 29212); assay: as above; details: Enterococcus faecalis ATCC29212; for MIC: read-out: MIC EF
Experimental: as §1, §2, §3

[3] = test system: Methicillin resistant Staphylococcus aureus (ATCC 33591); assay: as above; details: Staphylococcus aureus ATCC3359, Methicillin resistance; for MIC: ATCC 3359 / ATCC 33591 / MRSA, read-out: MIC MRSA
Experimental: as §1, §2, §3

[4] = test system: Staphylococcus aureus (ATCC 29213); assay: as above; details: Staphylococcus aureus ATCC29213; for MIC: read-out: MIC SA
Experimental: as §1, §2, §3

[5] = test system: gentamicin, streptmycin, vancomycin resistant Enterococcus faecalis (ATCC 51299); assay: microbe, parasite or virus in culture; details: for MIC: Enterococcus faecalis, ATCC51299, read-out: MIC VREF; for MIC VREF: Enterococcus faecalis ATCC51299, vancomycin resistance
Experimental: as §1, §2, §3

[6] = test system: Enterococcus faecium CL5137, VanA; assay: MIC susceptibility test; details: Enterococcus faecium CL5137, VanA; for MIC: read-out: MIC CL5137
[7] = test system: Enterococcus faecalis CL5244, VanB; assay: MIC susceptibility test; details: Enterococcus faecalis CL5244, VanB; for MIC: read-out: MIC CL5244
Experimental: as §1, §3

Row | Structure (SMILES) | MIC [1] [µg/mL] | MIC [2] [µg/mL] | MIC [3] [µg/mL] | MIC [4] [µg/mL] | MIC [5] [µg/mL] | MIC [6] [µg/mL] | MIC [7] [µg/mL] | MIC BC [1] [µg/mL] | MIC EF [2] [µg/mL] | MIC MRSA [3] [µg/mL] | MIC SA [4] [µg/mL] | MIC VREF [5] [µg/mL] | MIC CL5137 [6] | MIC CL5244 [7] [µg/mL]
1 | CN[C@@H](CC(C)C)C(=O)N[C@H]1C(=O)N[C@@H](CC(N)=O)C(=O)N[C@H]2C(=O)NC3C(=O)N[C@H](C(=O)N[C@@H](C(=O)O)c4cc(O)cc(O)c4-c4cc3ccc4O)[C@H](O)c3ccc(c(Cl)c3)Oc3cc2cc(c3OC2OC(CSc3nc(N)cc(O)n3)C(O)C(O)C2OC2CC(C)(N)C(O)C(C)O2)Oc2ccc(cc2Cl)[C@H]1O (stereo partly shown) [LXIII, Glucose-C6-2-thio-4-amino-6-hydroxypyrimidine Vancomycin] | 5 (≈ 3.18 µM) | 2.5 (≈ 1.59 µM) | > 5 | 5 (≈ 3.18 µM) | > 5 | > 50 | 6.3 (≈ 4 µM) | – | – | – | – | – | – | –
2 | CN[C@@H](CC(C)C)C(=O)N[C@H]1C(=O)N[C@@H](CC(N)=O)C(=O)N[C@H]2C(=O)NC3C(=O)N[C@H](C(=O)N[C@@H](C(=O)O)c4cc(O)cc(O)c4-c4cc3ccc4O)[C@H](O)c3ccc(c(Cl)c3)Oc3cc2cc(c3OC2OC(CSc3nnc(C)c(O)n3)C(O)C(O)C2OC2CC(C)(N)C(O)C(C)O2)Oc2ccc(cc2Cl)[C@H]1O (stereo partly shown) [LXIV, Glucose-C6-2-thio-6-azathymine Vancomycin] | 0.08 (≈ 0.0508 µM) | 0.12 (≈ 0.0762 µM) | 0.32 (≈ 0.203 µM) | 0.24 (≈ 0.152 µM) | 0.16 (≈ 0.102 µM) | > 500 | 1.2 (≈ 0.762 µM) | – | – | – | – | – | – | –
3 | C=C1N[C@@H]2C(=O)N[C@@H](C(=O)O)c3cc(O)cc(O)c3-c3cc(ccc3O)C1NC(=O)[C@@H]1NC(=O)[C@H](CC(N)=O)NC(=O)[C@H](NC(=O)[C@H](CC(C)C)NC)[C@H](O)c3ccc(c(Cl)c3)Oc3cc1cc(c3OC1OC(CSc3nc(-c4ccccc4)c(-c4ccccc4)o3)C(O)C(O)C1OC1CC(C)(N)C(O)C(C)O1)Oc1ccc(cc1Cl)[C@H]2O (stereo partly shown) [LXIX, Glucose-C6-2-thio-4,5-diphenyloxazole Vancomycin] | 1.3 (≈ 0.773 µM) | 0.24 (≈ 0.143 µM) | 2.5 (≈ 1.49 µM) | 1.9 (≈ 1.13 µM) | 0.32 (≈ 0.19 µM) | 50 (≈ 29.7 µM) | 0.6 (≈ 0.357 µM) | – | – | – | – | – | – | –
4 | CN[C@@H](CC(C)C)C(=O)N[C@H]1C(=O)N[C@@H](CC(N)=O)C(=O)N[C@H]2C(=O)NC3C(=O)N[C@H](C(=O)N[C@@H](C(=O)O)c4cc(O)cc(O)c4-c4cc3ccc4O)[C@H](O)c3ccc(c(Cl)c3)Oc3cc2cc(c3OC2OC(CSc3nc4cc(OC)ccc4[nH]3)C(O)C(O)C2OC2CC(C)(N)C(O)C(C)O2)Oc2ccc(cc2Cl)[C@H]1O (stereo partly shown) [LXV, Glucose-C6-2-thio-5-methoxybenzimidazole Vancomycin] | 0.63 (≈ 0.391 µM) | 0.63 (≈ 0.391 µM) | 2.5 (≈ 1.55 µM) | 1.9 (≈ 1.18 µM) | 2.5 (≈ 1.55 µM) | > 50 | 13 (≈ 8.07 µM) | – | – | – | – | – | – | –
5 | CN[C@@H](CC(C)C)C(=O)N[C@H]1C(=O)N[C@@H](CC(N)=O)C(=O)N[C@H]2C(=O)NC3C(=O)N[C@H](C(=O)N[C@@H](C(=O)O)c4cc(O)cc(O)c4-c4cc3ccc4O)[C@H](O)c3ccc(c(Cl)c3)Oc3cc2cc(c3OC2OC(CSc3nc4cc(Cl)ccc4s3)C(O)C(O)C2OC2CC(C)(N)C(O)C(C)O2)Oc2ccc(cc2Cl)[C@H]1O (stereo partly shown) [LXVI, Glucose-C6-2-thio-5-chlorobenzothiazole Vancomycin] | 0.16 (≈ 0.098 µM) | 0.24 (≈ 0.147 µM) | 1.3 (≈ 0.796 µM) | 0.63 (≈ 0.386 µM) | 0.32 (≈ 0.196 µM) | 50 (≈ 30.6 µM) | 0.4 (≈ 0.245 µM) | – | – | – | – | – | – | –
6 | CN[C@@H](CC(C)C)C(=O)N[C@H]1C(=O)N[C@@H](CC(N)=O)C(=O)N[C@H]2C(=O)NC3C(=O)N[C@H](C(=O)N[C@@H](C(=O)O)c4cc(O)cc(O)c4-c4cc3ccc4O)[C@H](O)c3ccc(c(Cl)c3)Oc3cc2cc(c3OC2OC(CSc3nnnn3-c3ccc(O)cc3)C(O)C(O)C2OC2CC(C)(N)C(O)C(C)O2)Oc2ccc(cc2Cl)[C@H]1O (stereo partly shown) [LXVIII, Glucose-C6-5-thio-1-(4-hydroxyphenyl)-1H-tetrazole Vancomycin] | 1.3 (≈ 0.8 µM) | 2.5 (≈ 1.54 µM) | 2.5 (≈ 1.54 µM) | 2.5 (≈ 1.54 µM) | > 5 | > 50 | 13 (≈ 8 µM) | – | – | – | – | – | – | –
7 | CNC(CC(C)C)C(=O)NC1C(=O)NC(CC(N)=O)C(=O)NC2C(=O)NC3C(=O)NC(C(=O)NC(C(=O)O)c4cc(O)cc(O)c4-c4cc3ccc4O)C(O)c3ccc(c(Cl)c3)Oc3cc2cc(c3OC2OC(CI)C(O)C(O)C2OC2CC(C)(N)C(O)C(C)O2)Oc2ccc(cc2Cl)C1O (stereo not shown) [LXX, Glucose-C6-iodo Vancomycin] | – | – | – | – | – | – | – | 0.63 (≈ 0.404 µM) | 0.63 (≈ 0.404 µM) | 1.3 (≈ 0.834 µM) | 0.63 (≈ 0.404 µM) | 1.9 (≈ 1.22 µM) | 50< μg/mL | 6.3 (≈ 4.04 µM)
8 | CCCCCCCCCCNC1(C)CC(OC2C(Oc3c4cc5cc3Oc3ccc(cc3Cl)C(O)C3NC(=O)C(NC(=O)C5NC(=O)C(CC(N)=O)NC(=O)C(NC(=O)C(CC(C)C)NC)C(O)c5ccc(c(Cl)c5)O4)c4ccc(O)c(c4)-c4c(O)cc(O)cc4C(C(=O)O)NC3=O)OC(CSc3nc(N)n[nH]3)C(O)C2O)OC(C)C1O (stereo not shown) [LXXII, Vancosamine-N-decyl-glucose-C6-S-3-amino-5-mercapto-1,2,4-triazole Vancomycin] | – | – | – | – | – | – | – | 2.5 (≈ 1.48 µM) | 0.32 (≈ 0.19 µM) | 1.9 (≈ 1.13 µM) | 3.8 (≈ 2.25 µM) | 0.32 (≈ 0.19 µM) | 6.3 µg/mL (≈ 3.73 µM) | 0.3 (≈ 0.178 µM)
9 | CN[C@H](CC(C)C)C(=O)N[C@H]1C(=O)N[C@@H](CC(N)=O)C(=O)N[C@H]2C(=O)N[C@H]3C(=O)N[C@H](C(=O)N[C@H](C(=O)O)c4cc(O)cc(O)c4-c4cc3ccc4O)[C@H](O)c3ccc(c(Cl)c3)Oc3cc2cc(c3OC2OC(CSc3nc(N)n[nH]3)C(O)C(O)C2OC2CC(C)(NCc3ccc(-c4ccc(Cl)cc4)cc3)C(O)C(C)O2)Oc2ccc(cc2Cl)[C@H]1O (stereo partly shown) [LXXIII, Vancosamine-N-4-(4-chlorophenyl)benzyl, Glucose-C6-S-3-amino-5-mercapto-1,2,4-triazole Vancomycin] | 0.48 (≈ 0.275 µM) | 0.16 (≈ 0.0915 µM) | 1 (≈ 0.572 µM) | 1.9 (≈ 1.09 µM) | 0.08 (≈ 0.0458 µM) | 3.2 (≈ 1.83 µM) | 0.2 (≈ 0.114 µM) | – | – | – | – | – | – | –
10 | CNC(CC(C)C)C(=O)NC1C(=O)NC(CC(N)=O)C(=O)NC2C(=O)NC3C(=O)NC(C(=O)NC(C(=O)O)c4cc(O)cc(O)c4-c4cc3ccc4O)C(O)c3ccc(c(Cl)c3)Oc3cc2cc(c3OC2OC(CI)C(O)C(O)C2OC2CC(C)(NCc3ccc(-c4ccc(Cl)cc4)cc3)C(O)C(C)O2)Oc2ccc(cc2Cl)C1O (stereo not shown) [LXXIIa, Vancosamine-N-4-(4-chlorophenyl)benzyl-glucose-C6-iodo vancomycin] | – | – | – | – | – | – | – | 0.32 (≈ 0.182 µM) | 0.16 (≈ 0.0909 µM) | 0.63 (≈ 0.358 µM) | 0.48 (≈ 0.273 µM) | 0.32 (≈ 0.182 µM) | 13 µg/mL (≈ 7.39 µM) | 0.3 (≈ 0.17 µM)
